Measurements taken from patent US20030186869A1, “Polymer compositions comprising antifibrotic agents, and methods of treatment, pharmaceutical compositions, and methods of preparation therefor” (priority 1990, published 2003).

How the values were obtained:
RFL-6 cells = experiment: IC50 experiment, cytotoxicity / growth inhibition of RFL-6 rat fibroblast cells; assay type: cell-based
Procedure: In this test two different synthesis batches of cis-hydroxyproline (CHOP) linked to PEG were tested, along with free CHOP. […] The differences between the two batches of CHOP-PEG are not significant.

[1] = tested on: Sprague-Dawley rats housed under hypoxic conditions (10% O2); experiment: Hypoxic rat model of pulmonary hypertension, CHOP-PEG; assay type: in vivo
Procedure: The anti-pulmonary hypertensive activity of the polymer compositions was tested in the hypoxic rat model (as described in detail above). […] PH is manifested histologically by vascular remodeling (collagen accumulation and fibroblastic hypertrophy), increased right ventricular work-load, thickening of the pulmonary artery, and hypertrophy of the right ventricular cardiac wall. […] Drug treatment can take place during the acute induction phase (days 0-7) or following the establishment of experimental PH (day 7 or later). Intravenous (i.v.), subcutaneous (s.c.), intra-tracheal instillation, and osmotic minipump delivery have been tested. Experiments are scored by obtaining the mean RVP measurement. Results are expressed as either RVP in mm Hg, or preferably as the reduction in the RVP by the formula: […] On day 7 the RVP was measured and compared to animals maintained in normoxic conditions (10.4 mm Hg) and to untreated animals kept in hypoxic conditions (19.3 mm Hg).

[2] = tested on: Sprague-Dawley rats housed under hypoxic conditions (10% O2); experiment: as above; assay type: in vivo; details: 10 mg in 7-day minipump

In the case of poly(PEG-Lys-cHyp amide) [CHOP-PEG], the IC50 (RFL-6 cells; PEG construct, mean ± SD (n), read-out: IC50, AA-Lys-PEG) is reported as 5.6 ± 1.5 mM, the “inhibition of rat fibroblast growth, polymeric constructs versus free amino acid” value (RFL-6 cells; two synthesis batches (1 and 2), FIG. 15) is reported as “to a similar extent” and the “reduction of RVP at minimum maximally effective dose” value ([1]; 0.8 mg total dose per animal, acute PH) is reported as over 70%. The “reduction of RVP” value ([1]; 10 mg in 7-day minipump, day 7) was 74%, the “reduction of RVP” value ([1]; 7-day miniosmotic pump, both drug treated groups (1 or 4 mg, FIG. 18)) was 76% and the “reduction of RVP” value ([1]; 7-day minipump, 1.0 mg) was “more than 50%”. For the same substance, the “reduction of RVP” value ([1]; intratracheal instillation 90 mg on days 0 and 2) was 51%, the RVP ([1]; intratracheal instillation 90 mg on days 0 and 2, reduced from 20) was 15 mm Hg and the “effect on RVP in rats under normoxic conditions” value ([1]; normoxic, intratracheal instillation, similar treatment) was “no effect”. For the same substance, the “reduction of RVP” value ([1]; single i.v. dose 0.8 mg on day 0, RVP on day 7) was about 50%, the “reduction of RVP” value ([1]; subcutaneous route, 7 day hypoxic rat model) was “minimal reduction of RVP” and the “minimum dose that reduces RVP maximally in acute PH” value ([1]; total dose per animal) was 0.8 mg. The “reduction of RVP” value ([2]; day 10) was 56% and the “reduction of RVP” value ([2]; day 14) was 45%.
